{"source": "PubChem BioAssay (NCI)", "test_in_all_cases": "growth of human tumour cells (NCI), 384-well format", "key": {"SF-268 CNS": {"system": "SF-268 CNS"}, "SK-MEL-2 melanoma": {"system": "SK-MEL-2 melanoma"}, "A549 NSCLC": {"system": "A549 NSCLC"}, "HT29 colon": {"system": "HT29 colon"}, "SF-295 CNS": {"system": "SF-295 CNS"}, "UO-31 renal": {"system": "UO-31 renal"}, "SNB-19 CNS": {"system": "SNB-19 CNS"}, "UACC-257 melanoma": {"system": "UACC-257 melanoma"}, "ACHN renal": {"system": "ACHN renal"}, "KM12 colon": {"system": "KM12 colon"}, "OVCAR-8 ovarian": {"system": "OVCAR-8 ovarian"}, "LOX IMVI melanoma": {"system": "LOX IMVI melanoma"}, "HCC-2998 colon": {"system": "HCC-2998 colon"}, "MDA-MB-468 breast": {"system": "MDA-MB-468 breast"}, "786-0 renal": {"system": "786-0 renal"}, "HL-60(TB) leukemia": {"system": "HL-60(TB) leukemia"}, "HCT-15 colon": {"system": "HCT-15 colon"}, "MDA-MB-231 breast": {"system": "MDA-MB-231 breast"}, "NCI-H23 lung": {"system": "NCI-H23 lung"}, "SNB-75 CNS": {"system": "SNB-75 CNS"}, "A498 renal": {"system": "A498 renal"}, "T-47D breast": {"system": "T-47D breast"}, "MALME-3M melanoma": {"system": "MALME-3M melanoma"}, "PC-3 prostate": {"system": "PC-3 prostate"}, "OVCAR-5 ovarian": {"system": "OVCAR-5 ovarian"}, "MDA-MB-435 melanoma": {"system": "MDA-MB-435 melanoma"}, "MOLT-4 leukemia": {"system": "MOLT-4 leukemia"}, "NCI-H460 NSCLC": {"system": "NCI-H460 NSCLC"}, "RXF 393 renal": {"system": "RXF 393 renal"}, "EKVX NSCLC": {"system": "EKVX NSCLC"}, "SF-539 CNS": {"system": "SF-539 CNS"}, "NCI-H522 lung": {"system": "NCI-H522 lung"}, "BT-549 breast": {"system": "BT-549 breast"}, "SW-620 colon": {"system": "SW-620 colon"}, "K-562 leukemia": {"system": "K-562 leukemia"}, "RPMI-8226 leukemia": {"system": "RPMI-8226 leukemia"}, "M14 melanoma": {"system": "M14 melanoma"}, "NCI/ADR-RES ovarian": {"system": "NCI/ADR-RES ovarian"}, "SK-MEL-5 melanoma": {"system": "SK-MEL-5 melanoma"}, "CAKI-1 renal": {"system": "CAKI-1 renal"}, "MCF7 breast": {"system": "MCF7 breast"}, "DU-145 prostate": {"system": "DU-145 prostate"}, "OVCAR-3 ovarian": {"system": "OVCAR-3 ovarian"}, "U251 glioblastoma": {"system": "U251 glioblastoma"}, "HOP-62 NSCLC": {"system": "HOP-62 NSCLC"}, "HOP-92 NSCLC": {"system": "HOP-92 NSCLC"}, "CCRF-CEM leukemia": {"system": "CCRF-CEM leukemia"}}, "note": "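GI50 marks 50% less growth. At the TGI there is no net growth.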"}
{"smiles": "NC1(c2ccc(-c3nc4ccn5c(=O)[nH]nc5c4cc3-c3ccccc3)cc2)CCC1", "values": [{"measurement": "GI50", "setting": "SF-268 CNS", "result": 2730, "unit": "nM"}, {"measurement": "TGI", "setting": "SF-268 CNS", "result": 7.37, "unit": "µM"}, {"measurement": "GI50", "setting": "SK-MEL-2 melanoma", "result": 1590, "unit": "nM"}, {"measurement": "TGI", "setting": "SK-MEL-2 melanoma", "result": 2950, "unit": "nM"}, {"measurement": "GI50", "setting": "A549 NSCLC", "result": 2050, "unit": "nM"}, {"measurement": "TGI", "setting": "A549 NSCLC", "result": 9.34, "unit": "µM"}, {"measurement": "GI50", "setting": "HT29 colon", "result": 1290, "unit": "nM"}, {"measurement": "TGI", "setting": "HT29 colon", "result": 2690, "unit": "nM"}, {"measurement": "GI50", "setting": "SF-295 CNS", "result": 1340, "unit": "nM"}, {"measurement": "TGI", "setting": "SF-295 CNS", "result": 2720, "unit": "nM"}, {"measurement": "GI50", "setting": "UO-31 renal", "result": 2200, "unit": "nM"}, {"measurement": "TGI", "setting": "UO-31 renal", "result": 6.72, "unit": "µM"}, {"measurement": "GI50", "setting": "SNB-19 CNS", "result": 2550, "unit": "nM"}, {"measurement": "TGI", "setting": "SNB-19 CNS", "result": 7.45, "unit": "µM"}, {"measurement": "GI50", "setting": "UACC-257 melanoma", "result": 1540, "unit": "nM"}, {"measurement": "TGI", "setting": "UACC-257 melanoma", "result": 2890, "unit": "nM"}, {"measurement": "GI50", "setting": "ACHN renal", "result": 1290, "unit": "nM"}, {"measurement": "TGI", "setting": "ACHN renal", "result": 5.45, "unit": "µM"}, {"measurement": "GI50", "setting": "KM12 colon", "result": 2320, "unit": "nM"}, {"measurement": "TGI", "setting": "KM12 colon", "result": 7.07, "unit": "µM"}, {"measurement": "GI50", "setting": "OVCAR-8 ovarian", "result": 1760, "unit": "nM"}, {"measurement": "TGI", "setting": "OVCAR-8 ovarian", "result": 3.96, "unit": "µM"}, {"measurement": "GI50", "setting": "LOX IMVI melanoma", "result": 1580, "unit": "nM"}, {"measurement": "TGI", "setting": "LOX IMVI melanoma", "result": 2950, "unit": "nM"}, {"measurement": "GI50", "setting": "HCC-2998 colon", "result": 1390, "unit": "nM"}, {"measurement": "TGI", "setting": "HCC-2998 colon", "result": 2780, "unit": "nM"}, {"measurement": "GI50", "setting": "MDA-MB-468 breast", "result": 48.3, "unit": "nM"}, {"measurement": "TGI", "setting": "MDA-MB-468 breast", "result": 514, "unit": "nM"}, {"measurement": "GI50", "setting": "786-0 renal", "result": 1070, "unit": "nM"}, {"measurement": "TGI", "setting": "786-0 renal", "result": 2320, "unit": "nM"}, {"measurement": "GI50", "setting": "HL-60(TB) leukemia", "result": 1920, "unit": "nM"}, {"measurement": "TGI", "setting": "HL-60(TB) leukemia", "result": 3.36, "unit": "µM"}, {"measurement": "GI50", "setting": "HCT-15 colon", "result": 1400, "unit": "nM"}, {"measurement": "TGI", "setting": "HCT-15 colon", "result": 2780, "unit": "nM"}, {"measurement": "GI50", "setting": "MDA-MB-231 breast", "result": 2490, "unit": "nM"}, {"measurement": "TGI", "setting": "MDA-MB-231 breast", "result": 6.52, "unit": "µM"}, {"measurement": "GI50", "setting": "NCI-H23 lung", "result": 2490, "unit": "nM"}, {"measurement": "TGI", "setting": "NCI-H23 lung", "result": 7.48, "unit": "µM"}, {"measurement": "GI50", "setting": "SNB-75 CNS", "result": 239, "unit": "nM"}, {"measurement": "TGI", "setting": "SNB-75 CNS", "result": 1780, "unit": "nM"}, {"measurement": "GI50", "setting": "A498 renal", "result": 134, "unit": "nM"}, {"measurement": "TGI", "setting": "A498 renal", "result": 1190, "unit": "nM"}, {"measurement": "GI50", "setting": "T-47D breast", "result": 27.2, "unit": "nM"}, {"measurement": "TGI", "setting": "T-47D breast", "result": 629, "unit": "nM"}, {"measurement": "GI50", "setting": "MALME-3M melanoma", "result": 683, "unit": "nM"}, {"measurement": "TGI", "setting": "MALME-3M melanoma", "result": 2210, "unit": "nM"}, {"measurement": "GI50", "setting": "PC-3 prostate", "result": 139, "unit": "nM"}, {"measurement": "TGI", "setting": "PC-3 prostate", "result": 3.21, "unit": "µM"}, {"measurement": "GI50", "setting": "OVCAR-5 ovarian", "result": 2130, "unit": "nM"}, {"measurement": "TGI", "setting": "OVCAR-5 ovarian", "result": 7.16, "unit": "µM"}, {"measurement": "GI50", "setting": "MDA-MB-435 melanoma", "result": 2360, "unit": "nM"}, {"measurement": "TGI", "setting": "MDA-MB-435 melanoma", "result": 7.21, "unit": "µM"}, {"measurement": "GI50", "setting": "MOLT-4 leukemia", "result": 131, "unit": "nM"}, {"measurement": "TGI", "setting": "MOLT-4 leukemia", "result": 632, "unit": "nM"}, {"measurement": "GI50", "setting": "NCI-H460 NSCLC", "result": 463, "unit": "nM"}, {"measurement": "TGI", "setting": "NCI-H460 NSCLC", "result": 2860, "unit": "nM"}, {"measurement": "GI50", "setting": "RXF 393 renal", "result": 863, "unit": "nM"}, {"measurement": "TGI", "setting": "RXF 393 renal", "result": 2230, "unit": "nM"}, {"measurement": "GI50", "setting": "EKVX NSCLC", "result": 1620, "unit": "nM"}, {"measurement": "TGI", "setting": "EKVX NSCLC", "result": 5.92, "unit": "µM"}, {"measurement": "GI50", "setting": "SF-539 CNS", "result": 815, "unit": "nM"}, {"measurement": "TGI", "setting": "SF-539 CNS", "result": 2080, "unit": "nM"}, {"measurement": "GI50", "setting": "NCI-H522 lung", "result": 2390, "unit": "nM"}, {"measurement": "TGI", "setting": "NCI-H522 lung", "result": 6.5, "unit": "µM"}, {"measurement": "GI50", "setting": "BT-549 breast", "result": 875, "unit": "nM"}, {"measurement": "TGI", "setting": "BT-549 breast", "result": 2520, "unit": "nM"}, {"measurement": "GI50", "setting": "SW-620 colon", "result": 4.69, "unit": "µM"}, {"measurement": "TGI", "setting": "SW-620 colon", "result": 8.9, "unit": "µM"}, {"measurement": "GI50", "setting": "K-562 leukemia", "result": 1590, "unit": "nM"}, {"measurement": "TGI", "setting": "K-562 leukemia", "result": 3.03, "unit": "µM"}, {"measurement": "GI50", "setting": "RPMI-8226 leukemia", "result": 1480, "unit": "nM"}, {"measurement": "TGI", "setting": "RPMI-8226 leukemia", "result": 3.24, "unit": "µM"}, {"measurement": "GI50", "setting": "M14 melanoma", "result": 1440, "unit": "nM"}, {"measurement": "TGI", "setting": "M14 melanoma", "result": 2770, "unit": "nM"}, {"measurement": "GI50", "setting": "NCI/ADR-RES ovarian", "result": 3.18, "unit": "µM"}, {"measurement": "TGI", "setting": "NCI/ADR-RES ovarian", "result": 12.1, "unit": "µM"}, {"measurement": "GI50", "setting": "SK-MEL-5 melanoma", "result": 777, "unit": "nM"}, {"measurement": "TGI", "setting": "SK-MEL-5 melanoma", "result": 1930, "unit": "nM"}, {"measurement": "GI50", "setting": "CAKI-1 renal", "result": 883, "unit": "nM"}, {"measurement": "TGI", "setting": "CAKI-1 renal", "result": 2600, "unit": "nM"}, {"measurement": "GI50", "setting": "MCF7 breast", "result": 135, "unit": "nM"}, {"measurement": "TGI", "setting": "MCF7 breast", "result": 1720, "unit": "nM"}, {"measurement": "GI50", "setting": "DU-145 prostate", "result": 5.78, "unit": "µM"}, {"measurement": "TGI", "setting": "DU-145 prostate", "result": 17.4, "unit": "µM"}, {"measurement": "GI50", "setting": "OVCAR-3 ovarian", "result": 859, "unit": "nM"}, {"measurement": "TGI", "setting": "OVCAR-3 ovarian", "result": 4.78, "unit": "µM"}, {"measurement": "GI50", "setting": "U251 glioblastoma", "result": 1860, "unit": "nM"}, {"measurement": "TGI", "setting": "U251 glioblastoma", "result": 4.53, "unit": "µM"}, {"measurement": "GI50", "setting": "HOP-62 NSCLC", "result": 2680, "unit": "nM"}, {"measurement": "TGI", "setting": "HOP-62 NSCLC", "result": 7.93, "unit": "µM"}, {"measurement": "GI50", "setting": "HOP-92 NSCLC", "result": 1160, "unit": "nM"}, {"measurement": "TGI", "setting": "HOP-92 NSCLC", "result": 2660, "unit": "nM"}, {"measurement": "GI50", "setting": "CCRF-CEM leukemia", "result": 127, "unit": "nM"}, {"measurement": "TGI", "setting": "CCRF-CEM leukemia", "result": 1160, "unit": "nM"}]}
